We go through 19 molecules from ChEMBL document CHEMBL5260816, “Synthesis and biological evaluation of the natural product komaroviquinone and related compounds aiming at a potential therapeutic lead compound for high-risk multiple myeloma” (Bioorg Med Chem Lett, 2017).

Structures are written as SMILES.

Data set [1] is described as follows: Cytotoxicity against human MUM24 cells assessed as reduction in cell viability incubated for 48 hrs by MTT assay. In kind it is functional, cell-based. Particulars: MUM24, 48 h.
Data set [2] is described as follows: Toxicity in ICR mouse bone marrow cells assessed as inhibition of cell differentiation incubated for 14 days by colony forming cell assay. To be noted: 336 h, time 14 day. In kind it is cell-based.
Data set [3] in a line: Toxicity in ICR mouse bone marrow cells assessed as inhibition of cell differentiation at higher concentration incubated for 14 days by colony forming cell assay. In kind it is cell-based. To be noted: 336 h, time 14 day.
A short description of data set [4]: Toxicity in ICR mouse bone marrow cells assessed as inhibition of cell differentiation at 1 uM incubated for 14 days by colony forming cell assay. In kind it is cell-based. Particulars: 336 h, time 14 day.

Usually IC50 stands for the concentration that inhibits the measured activity by half. With `COc1c(O)c2c(c(O)c1C(C)C)C(=O)C[C@H]1C(C)(C)CCC[C@]1(O)C2`, the IC50 in data set [1] amounted to 6.13 µM. Besides, the Activity result in data set [2] is listed as “Toxic”.

In the case of `COc1c(OC(C)=O)c2c(c(O)c1C(C)C)C(=O)C[C@H]1C(C)(C)CCC[C@]1(O)C2`, the IC50 in data set [1] is 12.5 µM.

For the molecule `COc1c(OC(C)=O)c2c(c(OC(C)=O)c1C(C)C)C(=O)C[C@H]1C(C)(C)CCC[C@]1(O)C2`, the IC50 in data set [1] was determined as 19.4 µM.

Take `COc1cc(COC(Cn2cncn2)c2ccc(F)cc2F)c(OC)c(OC)c1C(C)C` (centres undefined): the IC50 in data set [1] worked out at 7 µM. Moreover, in data set [3], the Activity result is recorded as “Non-Toxic”.

For the molecule `COc1cc(CC2=CCCC(C)(C)[C@@H]2CC(=O)O)c(OC)c(OC)c1C(C)C`, the IC50 in data set [1] was more than 10 µM.

Turning to `COC1=C(C(C)C)C(=O)C=C(COC(C)C)C1=O`, the IC50 in data set [1] is less than 3 µM.

With `COC1=C(C(C)C)C(=O)c2ccc(-c3ccccc3)nc2C1=O`, the IC50 in data set [1] is 4.12 µM.

Turning to `COc1cc(C[C@@]23CCCC(C)(C)[C@@H]2CC(=O)O3)c(OC)c(OC)c1C(C)C`, the IC50 in data set [1] came out at 4.97 µM.

Turning to `COc1c2c(c(OC)c(C(C)C)c1OC)C(=O)CCCC2`, in data set [1], the IC50 was more than 30 µM.

For the molecule `COC1=C(C(C)C)C(=O)C=C(C[C@@]23CCCC(C)(C)[C@@H]2CC(=O)O3)C1=O`, the IC50 in data set [1] is less than 3 µM.

With `COC1=C(C(C)C)C(=O)C=C(CC(O)(Cn2cncn2)c2ccc(F)cc2F)C1=O` (centres undefined), the IC50 in data set [1] came out at 2.49 µM. Also, the Activity entry in data set [2] is “Toxic”.

With `COc1c2c(c(OC)c(C(C)C)c1OC)C(=O)CCC2`, in data set [1], the 50% inhibitory concentration (IC50) was more than 30 µM.

In the case of `COc1cc(CC(O)(Cn2cncn2)c2ccc(F)cc2F)c(OC)c(OC)c1C(C)C` (centres undefined), the IC50 in data set [1] turned out to be 9.85 µM. The Activity entry in data set [3] is “Non-Toxic”.

For the molecule `COC1=C(C(C)C)C(=O)C=C(Cc2ccccc2)C1=O`, the half-inhibitory concentration (IC50) in data set [1] was less than 3 µM.

Turning to `COC1=C(C(C)C)C(=O)c2cc3c(nc2C1=O)CCCC3`, the IC50 in data set [1] turned out to be 1.39 µM.

`COC1=C(C(C)C)C(=O)C=C(COC(Cn2cncn2)c2ccc(F)cc2F)C1=O` (centres undefined): in data set [1], the IC50 was found to be 3.31 µM.

As for `COC1=C(C(C)C)C(=O)C=C(CNC(=O)C2CCCCC2)C1=O`, in data set [1], the IC50 was less than 3 µM.

Turning to `COc1c2c(c(OC)c(C(C)C)c1OC)C(=O)C[C@H]1C(C)(C)CCC[C@]1(O)C2`, in data set [1], the IC50 is more than 10 µM.

`COC1=C(C(C)C)C(=O)C2=C(C[C@@]34CCCC(C)(C)[C@@H]3C[C@]2(O)O4)C1=O` [KOMAROVIQUINONE]: the Activity result in data set [4] is listed as “Toxic”. Further, in data set [1], the IC50 was 0.65 µM.
